Results: patent US20230416203A1, “POTENT AND SELECTIVE INHIBITORS OF THE CALCIUM-ACTIVATED POTASSIUM CHANNEL, KCA3.1, FOR USE AS PLATFORM THERAPEUTICS” (priority 2020, published 2023)
Where two headings read alike, the source gives them in different places.

Legend:
KCa3.1 channel = KCa3.1 channel (Homo sapiens, UniProt O15554); assay: KCa3.1 patch-clamp (QPatch HTX automated and manual); type: cell-based
Method: The effect of the compounds on KCa3.1 channel was evaluated by patch-clamp using a QPatch HTX automated electrophysiology platform (Sophion, Denmark) and by manual patch-clamp (HEKA, Germany). For QPatch experiments, the giga-seal and whole-cell requirements for the automated electrophysiology were the following: minimum seal resistance=0.1 GQ; holding potential=−80 mV; holding pressure=−20 mbar; and positioning pressure=−70 mbar. For KCa3.1 experiment, the external solution was Na^+-Ringer's and contained (in mM): 160 NaCl; 10 HEPES; 4.5 KCl; 1 MgCl2; and 2 CaCl2 (pH=7.4, 310 mOsm). […] Following establishment of the whole-cell configuration, cells were held at −80 mV and KCa3.1 currents elicited by a voltage protocol that held at −80 mV for 20 ms, stepped to −120 mV for 20 ms, ramped from −120 to +40 mV over 200 ms, and then stepped back to −120 mV for 20 ms. This pulse protocol was applied every 10 s. Current slopes (in amperes per second) were measured using the Sophion QPatch software and exported to Microsoft Excel and GraphPad Prism 7 for analysis. […] Curve-fitting and IC50 determination were performed using GraphPad Prism software.

[1] = biological target: CaV1.2 channel over KCa3.1 (Homo sapiens, UniProt Q13936); assay: in vitro; conditions: pH 7.4
Method: (§2) The external solution contained (in mM): 140 TEA-Cl; 2 MgCl2; 10 CaCl2; 10 HEPES; and 5 D-glucose (pH=7.4). The internal solution contained (in mM): 120 CsCl; 1 MgCl2; 10 HEPES; 10 EGTA; 0.3 Na2-GTP; and 4 Mg-ATP (pH=7.2). Following establishment of the whole-cell configuration, CaV1.2 current was recorded at holding membrane potential of −80 mV and then depolarized to +10 mV (test pulse was modified slightly due to lead IV test) for 0.3 s. This protocol was repeated at 20 s intervals to observe the effect of the test compounds on the peak of CaV1.2 current. Each cell was incubated with each test compound for 5 min, or until the current reached steady-state. The compounds were applied at multiple concentrations from low to high. Each cell acted as its own control. The decreases in the peak currents were used to determine the IC50 for CaV1.2 inhibition. Curve-fitting and IC50 calculations were performed using IGOR software.

CaV1.2 channel = CaV1.2 channel (Homo sapiens, UniProt Q13936); assay: cell-based
Method: as §2

KCa1.1 = biological target: T1, KCa1.1 (Homo sapiens, UniProt Q12791); assay: Potassium channels patch-clamp (QPatch), KCa1.1; type: cell-based; conditions: HEK Human KCa1.1; read-out: KCa1.1
T1 construct: expressed in transfected cells; host or cells: HEK
Method: (§1) The effects of Group 4 compounds on related potassium channels were evaluated by patch-clamp using a QPatch HTX automated electrophysiology platform (Sophion, Denmark). The giga-seal and whole-cell requirements for the automated electrophysiology were the following: minimum seal resistance=0.1 GO, holding potential=−80 mV, holding pressure=−20 mbar; and positioning pressure=−70 mbar.

KCa2.2 = biological target: T2, KCa2.2 (Rattus norvegicus, UniProt P70604); assay: Potassium channels patch-clamp (QPatch), KCa2.2; type: cell-based; conditions: HEK Rat KCa2.2; read-out: KCa2.2
T2 construct: expressed in transfected cells; host or cells: HEK
Method: as §1

KCa2.3 = biological target: T3, KCa2.3 (Homo sapiens, UniProt Q9UGI6); assay: Potassium channels patch-clamp (QPatch), KCa2.3; type: cell-based; conditions: COS7 Human KCa2.3; read-out: KCa2.3
T3 construct: expressed in transfected cells; host or cells: COS7
Method: as §1

KV1.1 = biological target: T4, KV1.1 (Mus musculus, UniProt P16388); assay: Potassium channels patch-clamp (QPatch), KV1.1; type: cell-based; conditions: L929 Mouse KV1.1; read-out: KV1.1
T4 construct: expressed in transfected cells; host or cells: L929
Method: as §1

KV1.2 = biological target: T5, KV1.2 (Rattus norvegicus, UniProt P63142); assay: Potassium channels patch-clamp (QPatch), KV1.2; type: cell-based; conditions: B82 Rat KV1.2; read-out: KV1.2
T5 construct: expressed in transfected cells; host or cells: B82
Method: as §1

KV1.3 = biological target: T6, KV1.3 (Mus musculus, UniProt P16390); assay: Potassium channels patch-clamp (QPatch), KV1.3; type: cell-based; conditions: L929 Mouse KV1.3; read-out: KV1.3
T6 construct: expressed in transfected cells; host or cells: L929
Method: as §1

KV1.4 = biological target: T7, KV1.4 (Homo sapiens, UniProt P22459); assay: Potassium channels patch-clamp (QPatch), KV1.4; type: cell-based; conditions: LTK Human KV1.4; read-out: KV1.4
T7 construct: expressed in transfected cells; host or cells: LTK
Method: as §1

KV1.5 = biological target: T8, KV1.5 (Homo sapiens, UniProt P22460); assay: Potassium channels patch-clamp (QPatch), KV1.5; type: cell-based; conditions: MEL Human KV1.5; read-out: KV1.5
T8 construct: expressed in transfected cells; host or cells: MEL
Method: as §1

KV1.7 = biological target: T9, KV1.7 (Homo sapiens, UniProt Q96RP8); assay: Potassium channels patch-clamp (QPatch), KV1.7; type: cell-based; conditions: CHL Human KV1.7; read-out: KV1.7
T9 construct: expressed in transfected cells; host or cells: CHL
Method: as §1

KV3.1 = biological target: T10, KV3.1 (Mus musculus, UniProt P15388); assay: Potassium channels patch-clamp (QPatch), KV3.1; type: cell-based; conditions: L929 Mouse KV3.1; read-out: KV3.1
T10 construct: expressed in transfected cells; host or cells: L929
T10 sequence (P15388 1-511): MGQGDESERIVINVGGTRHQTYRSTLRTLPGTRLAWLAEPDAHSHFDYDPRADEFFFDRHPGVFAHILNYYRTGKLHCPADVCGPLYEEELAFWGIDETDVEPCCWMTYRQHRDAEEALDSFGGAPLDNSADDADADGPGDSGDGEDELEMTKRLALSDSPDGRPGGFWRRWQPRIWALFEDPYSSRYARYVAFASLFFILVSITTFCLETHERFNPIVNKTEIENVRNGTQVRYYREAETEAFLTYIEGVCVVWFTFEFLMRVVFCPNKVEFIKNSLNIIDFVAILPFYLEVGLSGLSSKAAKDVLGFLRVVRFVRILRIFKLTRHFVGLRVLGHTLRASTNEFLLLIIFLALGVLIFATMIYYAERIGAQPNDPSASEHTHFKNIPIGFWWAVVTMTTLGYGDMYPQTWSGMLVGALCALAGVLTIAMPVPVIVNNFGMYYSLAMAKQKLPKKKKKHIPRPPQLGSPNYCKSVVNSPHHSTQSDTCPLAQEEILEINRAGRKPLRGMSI
Method: as §1

KV4.2 = biological target: T11, KV4.2 (Rattus norvegicus, UniProt Q63881); assay: Potassium channels patch-clamp (QPatch), KV4.2; type: cell-based; conditions: LTK Rat KV4.2; read-out: KV4.2
T11 construct: expressed in transfected cells; host or cells: LTK
T11 sequence (Q63881 1-630): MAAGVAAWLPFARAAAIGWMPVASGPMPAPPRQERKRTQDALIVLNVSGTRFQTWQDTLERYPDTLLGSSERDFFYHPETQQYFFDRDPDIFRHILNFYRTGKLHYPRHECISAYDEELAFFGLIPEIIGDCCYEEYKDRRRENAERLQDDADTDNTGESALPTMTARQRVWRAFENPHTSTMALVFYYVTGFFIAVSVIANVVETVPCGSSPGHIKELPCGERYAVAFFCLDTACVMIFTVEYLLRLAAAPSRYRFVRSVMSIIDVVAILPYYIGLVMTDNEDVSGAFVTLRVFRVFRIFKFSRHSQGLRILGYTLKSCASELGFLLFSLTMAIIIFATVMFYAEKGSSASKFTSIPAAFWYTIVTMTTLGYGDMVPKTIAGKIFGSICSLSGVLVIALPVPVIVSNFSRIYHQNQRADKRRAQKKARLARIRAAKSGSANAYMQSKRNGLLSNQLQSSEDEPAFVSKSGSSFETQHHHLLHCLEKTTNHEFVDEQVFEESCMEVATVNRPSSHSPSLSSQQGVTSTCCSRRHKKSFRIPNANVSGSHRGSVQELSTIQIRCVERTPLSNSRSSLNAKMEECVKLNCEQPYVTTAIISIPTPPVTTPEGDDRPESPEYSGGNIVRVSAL
Method: as §1

KV11.1 (hERG) = biological target: T12, KV11.1 (hERG) (Homo sapiens, UniProt Q12809); assay: Potassium channels patch-clamp (QPatch), KV11.1 (hERG); type: cell-based; conditions: CHO Human KV11.1; read-out: KV11.1 (hERG)
T12 construct: host or cells: CHO
Method: as §1

[2] = block of KCa3.1, patch clamp (Table 2), read-out: IC50
[3] = IC50 (nM), block of KCa3.1, patch clamp (Table 2)

T3 sequence (Q9UGI6 whole entry): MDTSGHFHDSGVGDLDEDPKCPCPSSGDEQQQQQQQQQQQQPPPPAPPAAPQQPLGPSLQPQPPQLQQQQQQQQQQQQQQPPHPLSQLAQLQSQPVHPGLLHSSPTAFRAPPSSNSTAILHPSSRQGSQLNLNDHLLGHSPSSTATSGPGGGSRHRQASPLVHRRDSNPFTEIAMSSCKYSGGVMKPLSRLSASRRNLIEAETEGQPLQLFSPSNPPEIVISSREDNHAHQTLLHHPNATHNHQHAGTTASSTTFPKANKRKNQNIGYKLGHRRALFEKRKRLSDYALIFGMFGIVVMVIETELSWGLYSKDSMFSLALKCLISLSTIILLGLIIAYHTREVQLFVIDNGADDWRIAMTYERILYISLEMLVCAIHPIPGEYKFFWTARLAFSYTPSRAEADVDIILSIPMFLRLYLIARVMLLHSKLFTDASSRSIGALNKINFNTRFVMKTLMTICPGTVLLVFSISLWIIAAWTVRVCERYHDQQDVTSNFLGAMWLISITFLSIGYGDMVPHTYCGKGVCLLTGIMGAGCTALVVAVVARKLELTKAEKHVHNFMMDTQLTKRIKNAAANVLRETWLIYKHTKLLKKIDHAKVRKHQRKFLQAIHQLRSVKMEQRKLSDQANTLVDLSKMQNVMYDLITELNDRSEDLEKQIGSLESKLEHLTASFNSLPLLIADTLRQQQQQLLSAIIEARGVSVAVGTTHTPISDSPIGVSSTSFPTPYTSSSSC
T6 sequence (P16390 whole entry): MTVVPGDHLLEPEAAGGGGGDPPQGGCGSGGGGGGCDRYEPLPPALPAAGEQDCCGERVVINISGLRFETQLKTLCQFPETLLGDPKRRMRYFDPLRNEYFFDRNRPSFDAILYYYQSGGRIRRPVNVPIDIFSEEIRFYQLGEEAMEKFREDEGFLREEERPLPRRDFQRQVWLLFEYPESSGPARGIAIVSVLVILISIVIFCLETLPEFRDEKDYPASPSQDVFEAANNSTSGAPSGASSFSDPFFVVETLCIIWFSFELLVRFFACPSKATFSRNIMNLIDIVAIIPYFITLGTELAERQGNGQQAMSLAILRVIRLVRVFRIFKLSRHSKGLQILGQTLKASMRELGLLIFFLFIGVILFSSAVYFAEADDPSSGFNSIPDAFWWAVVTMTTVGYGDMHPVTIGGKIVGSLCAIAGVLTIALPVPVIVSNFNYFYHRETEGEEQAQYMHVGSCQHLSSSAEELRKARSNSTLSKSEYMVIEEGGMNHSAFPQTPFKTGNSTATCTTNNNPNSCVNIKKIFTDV
T8 sequence (P22460 whole entry): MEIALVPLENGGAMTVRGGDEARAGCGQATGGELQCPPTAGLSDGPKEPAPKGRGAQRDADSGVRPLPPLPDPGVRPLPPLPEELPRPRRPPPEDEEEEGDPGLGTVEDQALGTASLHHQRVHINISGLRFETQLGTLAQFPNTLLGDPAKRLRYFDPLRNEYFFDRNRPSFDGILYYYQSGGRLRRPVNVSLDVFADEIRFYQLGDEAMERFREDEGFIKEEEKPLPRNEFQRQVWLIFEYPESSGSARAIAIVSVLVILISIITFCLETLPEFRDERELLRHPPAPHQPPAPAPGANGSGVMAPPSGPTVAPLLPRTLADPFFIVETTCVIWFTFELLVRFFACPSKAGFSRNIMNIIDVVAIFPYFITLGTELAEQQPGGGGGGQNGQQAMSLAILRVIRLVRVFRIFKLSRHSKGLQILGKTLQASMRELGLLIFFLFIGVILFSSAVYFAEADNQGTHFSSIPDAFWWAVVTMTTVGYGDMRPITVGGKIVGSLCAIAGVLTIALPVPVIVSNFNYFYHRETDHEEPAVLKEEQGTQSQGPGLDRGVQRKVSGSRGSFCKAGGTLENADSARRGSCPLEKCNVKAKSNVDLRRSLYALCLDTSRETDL
T12 sequence (Q12809 whole entry): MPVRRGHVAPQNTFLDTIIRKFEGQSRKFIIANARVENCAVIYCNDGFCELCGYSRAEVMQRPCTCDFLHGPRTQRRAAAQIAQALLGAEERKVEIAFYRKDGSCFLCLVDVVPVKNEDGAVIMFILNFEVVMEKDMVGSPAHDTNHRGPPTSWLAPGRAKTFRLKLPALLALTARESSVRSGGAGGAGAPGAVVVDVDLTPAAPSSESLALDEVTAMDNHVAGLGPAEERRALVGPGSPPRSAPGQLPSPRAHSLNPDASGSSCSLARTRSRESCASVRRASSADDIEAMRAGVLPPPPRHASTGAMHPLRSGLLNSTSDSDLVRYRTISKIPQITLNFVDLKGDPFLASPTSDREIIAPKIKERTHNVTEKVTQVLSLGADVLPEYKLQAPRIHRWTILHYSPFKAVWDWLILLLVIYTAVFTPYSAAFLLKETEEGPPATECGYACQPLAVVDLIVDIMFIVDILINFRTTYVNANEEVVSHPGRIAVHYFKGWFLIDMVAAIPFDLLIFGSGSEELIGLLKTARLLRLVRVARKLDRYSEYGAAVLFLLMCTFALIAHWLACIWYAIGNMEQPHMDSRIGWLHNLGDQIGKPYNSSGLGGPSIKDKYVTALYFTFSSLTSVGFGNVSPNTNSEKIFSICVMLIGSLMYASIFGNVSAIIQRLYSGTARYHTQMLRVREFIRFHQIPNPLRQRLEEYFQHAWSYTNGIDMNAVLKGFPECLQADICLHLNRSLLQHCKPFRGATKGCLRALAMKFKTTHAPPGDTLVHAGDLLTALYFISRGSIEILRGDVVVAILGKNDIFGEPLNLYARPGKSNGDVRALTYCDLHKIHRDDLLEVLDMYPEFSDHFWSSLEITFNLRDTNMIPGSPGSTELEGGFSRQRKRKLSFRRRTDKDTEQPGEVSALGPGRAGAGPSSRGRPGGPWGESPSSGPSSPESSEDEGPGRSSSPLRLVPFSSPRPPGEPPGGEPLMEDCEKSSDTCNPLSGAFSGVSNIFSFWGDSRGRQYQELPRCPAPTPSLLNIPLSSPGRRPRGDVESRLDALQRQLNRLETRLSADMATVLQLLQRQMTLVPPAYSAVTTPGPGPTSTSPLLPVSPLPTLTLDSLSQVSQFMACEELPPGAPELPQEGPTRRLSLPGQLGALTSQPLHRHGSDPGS
T9 sequence (Q96RP8 whole entry): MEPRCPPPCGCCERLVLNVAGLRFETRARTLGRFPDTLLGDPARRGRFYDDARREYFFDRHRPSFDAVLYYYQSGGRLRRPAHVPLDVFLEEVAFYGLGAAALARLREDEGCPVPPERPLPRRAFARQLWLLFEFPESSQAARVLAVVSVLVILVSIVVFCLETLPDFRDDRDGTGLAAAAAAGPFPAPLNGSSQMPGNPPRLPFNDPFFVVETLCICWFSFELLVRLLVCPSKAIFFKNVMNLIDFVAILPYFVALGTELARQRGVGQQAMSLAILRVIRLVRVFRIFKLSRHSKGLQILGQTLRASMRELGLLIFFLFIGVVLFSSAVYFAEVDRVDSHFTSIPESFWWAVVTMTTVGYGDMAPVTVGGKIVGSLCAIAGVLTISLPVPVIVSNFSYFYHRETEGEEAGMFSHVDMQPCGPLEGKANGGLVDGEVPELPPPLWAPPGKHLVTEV
T2 sequence (P70604 whole entry): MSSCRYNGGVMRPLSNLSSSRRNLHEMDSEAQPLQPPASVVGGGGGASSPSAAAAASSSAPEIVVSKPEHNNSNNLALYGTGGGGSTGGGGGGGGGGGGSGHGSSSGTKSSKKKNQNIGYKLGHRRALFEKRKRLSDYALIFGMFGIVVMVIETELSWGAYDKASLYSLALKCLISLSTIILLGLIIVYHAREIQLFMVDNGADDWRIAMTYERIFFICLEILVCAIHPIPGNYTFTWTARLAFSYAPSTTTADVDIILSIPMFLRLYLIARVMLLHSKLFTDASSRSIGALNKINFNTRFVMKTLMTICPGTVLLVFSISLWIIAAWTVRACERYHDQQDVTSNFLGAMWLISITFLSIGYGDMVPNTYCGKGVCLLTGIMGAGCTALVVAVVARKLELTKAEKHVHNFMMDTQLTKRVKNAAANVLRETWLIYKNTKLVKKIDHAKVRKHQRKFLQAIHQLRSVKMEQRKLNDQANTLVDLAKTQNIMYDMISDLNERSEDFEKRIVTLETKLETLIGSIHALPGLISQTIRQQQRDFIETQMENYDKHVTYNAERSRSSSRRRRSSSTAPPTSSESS
T5 sequence (P63142 whole entry): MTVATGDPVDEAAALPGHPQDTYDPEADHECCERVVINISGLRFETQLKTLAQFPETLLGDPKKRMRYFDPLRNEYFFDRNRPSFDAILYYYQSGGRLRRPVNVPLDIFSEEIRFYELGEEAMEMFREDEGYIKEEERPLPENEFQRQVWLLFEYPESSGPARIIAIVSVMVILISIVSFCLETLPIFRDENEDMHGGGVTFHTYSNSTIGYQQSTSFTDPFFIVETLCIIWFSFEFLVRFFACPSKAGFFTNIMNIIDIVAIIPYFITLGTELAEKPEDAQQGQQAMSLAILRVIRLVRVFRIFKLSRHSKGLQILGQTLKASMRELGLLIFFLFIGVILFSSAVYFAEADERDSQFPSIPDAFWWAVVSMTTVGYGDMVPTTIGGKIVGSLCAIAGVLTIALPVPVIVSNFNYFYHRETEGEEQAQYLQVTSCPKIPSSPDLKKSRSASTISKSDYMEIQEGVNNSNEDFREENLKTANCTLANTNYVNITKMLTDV

Row | SMILES | IC50 (KCa3.1 channel; [2]) [nM] | IC50 (KCa3.1 channel; [3]) [nM] | IC50 (KCa3.1 channel; KCa3.1 IC50 (nM), Table 3) [nM] | selectivity ratio [1] | IC50 (CaV1.2 channel) [µM] | IC50 (KCa3.1 channel; KCa3.1, Table 5) [nM] | IC50 (KCa2.3) [µM] | IC50 (KV1.3) [µM] | IC50 (KV1.5) [µM] | IC50 (KV11.1 (hERG)) [µM] | other results
1 | COC(=O)C1=C(C)NC(C)=C(C(=O)OCCN2CCN(C(c3ccccc3)c3ccccc3)CC2)C1c1cccc([N+](=O)[O-])c1 (stereo not shown) [Compound 03] | > 10000 |  |  |  |  |  |  |  |  |  | 
2 | COCCOC(=O)C1=C(C)NC(C)=C(C(=O)OC(C)C)C1c1cccc([N+](=O)[O-])c1 (stereo not shown) [Compound 04] | > 10000 |  |  |  |  |  |  |  |  |  | 
3 | COCCOC(=O)C1=C(C)NC(C)=C(C(=O)OCCOC)C1c1cccc([N+](=O)[O-])c1 [Compound 06] |  | 9880 |  |  |  |  |  |  |  |  | 
4 | COC(=O)C1=C(C)NC(C)=C(C(=O)OC)C1c1ccccc1[N+](=O)[O-] [Compound 07] | 4000 |  |  |  |  |  |  |  |  |  | IC50 (KCa3.1 channel; Table 3, read-out: KCa3.1 IC50): 4000 nM
5 | CCOC(=O)C1=C(C)NC(C)=C(C(=O)OC)C1c1cccc([N+](=O)[O-])c1 (stereo not shown) [Compound 08] | 2300 |  |  |  |  |  |  |  |  |  | IC50 (KCa3.1 channel; Table 3, read-out: KCa3.1 IC50): 2300 nM
6 | COC(=O)C1=C(C)NC(C)=C(C(C)=O)C1c1ccc(F)c(C(F)(F)F)c1 (stereo not shown) [Compound 57] |  | 16.8 ± 0.9 | 16.8 | 89 | 1.5 |  |  |  |  |  | 
7 | COC(=O)C1=C(C)NC(C)=C(C(C)=O)C1c1cccc([N+](=O)[O-])c1 (stereo not shown) [Compound 79] |  | 142 ± 7.6 | 142 | 14 | 2 |  |  |  |  |  | 
8 | COC(=O)C1=C(C)NC(C)=C(C(=O)OC)C1c1ccc(Cl)c(C(F)(F)F)c1 [Compound 102] |  | 7 ± 0.2 | 7 | 342 | 2.4 |  |  |  |  |  | 
9 | COC(=O)C1=CNC(C)=C(C(=O)OC)C1c1ccc(F)c(C(F)(F)F)c1 (stereo not shown) [Compound 104, Dimethyl 4-(4-fluoro-3-(trifluoromethyl)phenyl)-2-methyl-1,4-dihydropyridine-3,5-dicarboxylate] |  |  | 7.6 | 644 | 4.9 | 7.6 ± 1.7 | 8 | > 10 | > 10 | > 10 | IC50 (KCa1.1): > 10 µM; IC50 (KCa2.2): > 10 µM; IC50 (KV1.1): > 10 µM; IC50 (KV1.2): > 10 µM; IC50 (KV1.4): > 10 µM; IC50 (KV1.7): > 10 µM; IC50 (KV3.1): > 10 µM; IC50 (KV4.2): > 10 µM
10 | COC(=O)C1=CNC=C(C(=O)OC)C1c1cccc(C(F)(F)F)c1 [Compound 108, Dimethyl 4-(3-(trifluoromethyl)phenyl)-1,4-dihydropyridine-3,5-dicarboxylate] |  | 18.5 ± 1.1 | 18.5 | 1190 | 22 | 18.5 ± 1.1 | 7 | > 10 | > 10 | > 10 | IC50 (KCa1.1): > 10 µM; IC50 (KCa2.2): > 10 µM; IC50 (KV1.1): > 10 µM; IC50 (KV1.2): > 10 µM; IC50 (KV1.4): > 10 µM; IC50 (KV1.7): > 10 µM; IC50 (KV3.1): > 10 µM; IC50 (KV4.2): > 10 µM
11 | COC(=O)C1=CNC=C(C(=O)OC)C1c1cc(F)cc(C(F)(F)F)c1 [Compound 109] |  | 4.5 ± 0.2 | 4.5 | 2360 | 10.6 | 4.5 ± 0.2 | > 10 | > 10 | > 10 | > 10 | 
12 | COC(=O)C1=CNC=C(C(=O)OC)C1c1cc(F)c(F)c(C(F)(F)F)c1 [Compound 110, Dimethyl 4-(3,4-difluoro-5-(trifluoromethyl)phenyl)-1,4-dihydropyridine-3,5-dicarboxylate] |  | 6.9 ± 1.3 | 6.9 | 1320 | 9.1 | 6.9 ± 1.3 | > 10 | > 10 | > 10 | > 10 | 
13 | COC(=O)C1=CNC=C(C(=O)OC)C1c1ccc(Cl)c(C(F)(F)F)c1 [Compound 113, Dimethyl 4-(4-chloro-3-(trifluoromethyl)phenyl)-1,4-dihydropyridine-3,5-dicarboxylate] |  | 5.7 ± 0.3 | 5.7 | 649 | 3.7 | 5.7 ± 0.3 | > 10 | > 10 | > 10 | > 10 | 
